In US7964645B2, “Di-aromatic substituted amides as inhibitors for GlyT-1” (Hoffmann-La Roche Inc., priority 2006, dated 2011):

Biological target: T1, mGlyT-1b (Mus musculus, UniProt P28571)
T1 construct: host or cells: Flp-in-CHO
T1 sequence (P28571 1-651 isoform P28571-2): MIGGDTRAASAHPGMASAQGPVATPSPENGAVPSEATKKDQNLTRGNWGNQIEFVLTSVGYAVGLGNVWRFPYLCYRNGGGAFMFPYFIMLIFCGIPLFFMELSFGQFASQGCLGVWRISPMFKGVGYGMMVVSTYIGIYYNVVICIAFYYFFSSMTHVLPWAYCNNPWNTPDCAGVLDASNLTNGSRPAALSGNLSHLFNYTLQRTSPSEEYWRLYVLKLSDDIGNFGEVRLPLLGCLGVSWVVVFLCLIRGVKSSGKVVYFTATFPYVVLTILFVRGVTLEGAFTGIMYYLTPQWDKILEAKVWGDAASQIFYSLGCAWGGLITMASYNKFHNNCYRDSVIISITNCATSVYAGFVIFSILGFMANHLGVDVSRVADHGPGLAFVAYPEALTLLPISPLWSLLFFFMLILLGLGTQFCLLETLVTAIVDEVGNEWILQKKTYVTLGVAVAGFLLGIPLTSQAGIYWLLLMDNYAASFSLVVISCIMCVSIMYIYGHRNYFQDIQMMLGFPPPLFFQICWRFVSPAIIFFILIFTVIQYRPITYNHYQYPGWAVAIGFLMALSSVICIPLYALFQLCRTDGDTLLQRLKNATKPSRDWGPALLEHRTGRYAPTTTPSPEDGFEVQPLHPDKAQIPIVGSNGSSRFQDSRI
Experiment: Glycine Uptake Inhibition Assay (mGlyT-1b)
Assay type: cell-based
Settings: [3H]-glycine uptake in Flp-in-CHO cells transfected with mGlyT-1b cDNA; 20 min at 22° C.; read-out: GlyT-1 IC50
Method: DMEM complete medium: Nutrient mixture F-12 (Gibco Life-technologies), fetal bovine serum (FBS) 5%, (Gibco life technologies), Penicillin/Streptomycin 1% (Gibco life technologies), Hygromycin 0.6 mg/ml (Gibco life technologies), Glutamine 1 mM Gibco life technologies)
Uptake buffer (UB): 150 mM NaCl, 10 mM Hepes-Tris, pH 7.4, 1 mM CaCl2, 2.5 mM KCl, 2.5 mM MgSO4, 10 mM (+) D-glucose.
Flp-in™-CHO (Invitrogen Cat n^o R758-07) cells stably transfected with mGlyT1b cDNA.
Glycine Uptake Inhibition Assay (mGlyT-1b)
On day 1 mammalian cells, (Flp-in™-CHO), transfected with mGlyT-1b cDNA, were plated at the density of 40,000 cells/well in complete F-12 medium, without hygromycin in 96-well culture plates. On day 2, the medium was aspirated and the cells were washed twice with uptake buffer (UB). The cells were then incubated for 20 min at 22° C. with either (i) no potential competitor, (ii) 10 mM non-radioactive glycine, (iii) a concentration of a potential inhibitor. A range of concentrations of the potential inhibitor was used to generate data for calculating the concentration of inhibitor resulting in 50% of the effect (e.g. IC50, the concentration of the competitor inhibiting glycine uptake of 50%). A solution was then immediately added containing [^3H]-glycine 60 nM (11-16 Ci/mmol) and 25 μM non-radioactive glycine. The plates were incubated with gentle shaking and the reaction was stopped by aspiration of the mixture and washing (three times) with ice-cold UB. The cells were lysed with scintillation liquid, shaken 3 hours and the radioactivity in the cells was counted using a scintillation counter.

IC50 [nM]	SMILES
54	O=C(CNC(=O)c1ccccc1)NC(c1ccccc1)c1cccc(C(F)(F)F)c1 (racemic) [Example 1.30, rac-N-({[Phenyl-(3-trifluoromethyl-phenyl)-methyl]-carbamoyl}-methyl)-benzamide]
15	O=C(CNC(=O)c1ccc([N+](=O)[O-])s1)NC(c1ccccc1)c1ccc(Cl)cc1 (racemic) [Example 1.32, rac-5-Nitro-thiophene-2-carboxylic acid ({[(4-chloro-phenyl)-phenyl-methyl]-carbamoyl}-methyl)-amide]
19	N#Cc1ccc(C(=O)NCC(=O)NC(c2ccccc2)c2cccc(C(F)(F)F)c2)cc1 (racemic) [Example 1.44, rac-4-Cyano-N-({[phenyl-(3-trifluoromethyl-phenyl)-methyl]-carbamoyl}-methyl)-benzamide]
88	O=C(CNC(=O)c1ccc(F)cc1)NC(c1ccccc1)c1ccc(F)cc1 (racemic) [Example 1.69, rac-4-Fluoro-N-({[(4-fluoro-phenyl)-phenyl-methyl]-carbamoyl}-methyl)-benzamide]
25	O=C(CNC(=O)c1ccc(F)cc1)NC(c1ccccc1)c1cc(F)cc(F)c1 (racemic) [Example 1.72, rac-N-({[(3,5-Difluoro-phenyl)-phenyl-methyl]-carbamoyl}-methyl)-4-fluoro-benzamide]
74	O=C(CNC(=O)c1ccc(F)cc1)NC(c1ccc(Cl)cc1)c1cccc(C(F)(F)F)c1 (racemic) [Example 1.76, rac-N-({[(4-Chloro-phenyl)-(3-trifluoromethyl-phenyl)-methyl]-carbamoyl}-methyl)-4-fluoro-benzamide]
48	O=C(CNC(=O)c1ccc(F)cc1)NC(c1ccc(F)cc1)c1cccc(C(F)(F)F)c1 (racemic) [Example 1.77, rac-4-Fluoro-N-({[(4-fluoro-phenyl)-(3-trifluoromethyl-phenyl)-methyl]-carbamoyl}-methyl)-benzamide]
58	Cc1ccc(C(NC(=O)CNC(=O)c2ccc(F)cc2)c2cccc(C(F)(F)F)c2)cc1 (racemic) [Example 1.78, rac-4-Fluoro-N-({[p-tolyl-(3-trifluoromethyl-phenyl)-methyl]-carbamoyl}-methyl)-benzamide]
42	Cc1ccc(C(=O)NCC(=O)NC(c2cccc(F)c2)c2cccc(F)c2)s1 [Example 1.86, 5-Methyl-thiophene-2-carboxylic acid ({[bis-(3-fluoro-phenyl)-methyl]-carbamoyl}-methyl)-amide]
28	O=C(CNC(=O)c1ccsc1)NC(c1cccc(F)c1)c1cccc(F)c1 [Example 1.98, Thiophene-3-carboxylic acid ({[bis-(3-fluoro-phenyl)-methyl]-carbamoyl}-methyl)-amide]
